pIC50: −log10 of the molar value. Counter-ions that a name gives are not always drawn.
What was measured:
TLR8 = target: T1, TLR8 (Homo sapiens, UniProt Q9NR97); experiment: HEK TLR8 Cell Assay; assay type: cell-based; conditions: TLR8/NFKb HEK cells, R848 agonist 30 uM final, Steady-Glo readout
T1 construct: expressed in transfected cells; host or cells: HEK cells carrying TLR8 and an NFkB luciferase reporter
T1 sequence (Q9NR97 27-1041): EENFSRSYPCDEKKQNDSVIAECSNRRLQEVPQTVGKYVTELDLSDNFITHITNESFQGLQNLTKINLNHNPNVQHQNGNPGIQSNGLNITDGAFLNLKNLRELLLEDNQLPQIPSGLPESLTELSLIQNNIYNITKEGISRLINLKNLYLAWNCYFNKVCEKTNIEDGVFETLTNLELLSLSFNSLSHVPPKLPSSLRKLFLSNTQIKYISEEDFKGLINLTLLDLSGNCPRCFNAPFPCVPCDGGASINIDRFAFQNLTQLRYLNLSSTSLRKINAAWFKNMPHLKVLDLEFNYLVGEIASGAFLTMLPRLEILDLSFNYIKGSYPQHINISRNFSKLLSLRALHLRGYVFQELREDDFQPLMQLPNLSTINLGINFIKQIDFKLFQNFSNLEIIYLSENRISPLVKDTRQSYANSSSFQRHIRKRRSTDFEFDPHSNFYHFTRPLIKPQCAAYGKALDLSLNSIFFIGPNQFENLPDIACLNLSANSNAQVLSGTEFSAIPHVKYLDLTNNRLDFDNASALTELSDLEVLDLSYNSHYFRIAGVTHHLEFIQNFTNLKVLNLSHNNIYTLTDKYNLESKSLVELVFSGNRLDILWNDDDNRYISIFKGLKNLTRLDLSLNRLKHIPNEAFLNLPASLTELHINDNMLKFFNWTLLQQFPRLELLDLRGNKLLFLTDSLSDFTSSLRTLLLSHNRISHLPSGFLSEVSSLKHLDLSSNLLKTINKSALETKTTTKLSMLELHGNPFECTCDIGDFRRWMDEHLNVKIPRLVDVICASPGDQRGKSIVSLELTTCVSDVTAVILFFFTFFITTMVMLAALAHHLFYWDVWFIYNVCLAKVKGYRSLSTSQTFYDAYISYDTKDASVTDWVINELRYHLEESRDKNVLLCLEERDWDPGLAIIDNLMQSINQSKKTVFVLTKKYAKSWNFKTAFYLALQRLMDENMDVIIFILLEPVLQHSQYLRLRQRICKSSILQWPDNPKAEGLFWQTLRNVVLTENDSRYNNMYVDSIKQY
Protocol: Example 25: HEK TLR8 Cell Assay
(§1) Into 384 CulturePlates (Corning 3707) was placed 5000 c/w of TLR8/NFKb HEK cells in 30 uL DMEM without Phenol red (gibco #31053) and 10% FCS-HI, 2 mM L-Glutamine, 1% Pen/Strept. The cells are incubated for 24 h at 37 degrees Celsius, and 10% carbon dioxide. Dispense 3 uL of controls, standards, and compounds to wells, incubate for 30 min then add 3 uL of R848 (30 uM final concentration) agonist in 20 mM Hepes. Incubate for 5 hours and then allow to stand at room temperature for 15 min. Add 10 uL of Steady-Glo substrate reagent and shake assay plate for 5 min at 1500 rpm. Let the assay plate sit for 30 min at room temperature and then read plate on EnVision.

TLR7 = target: T2, TLR7 (Homo sapiens, UniProt Q9NYK1); experiment: HEK TLR7 Cell Assay; assay type: cell-based; conditions: TLR7/NFKb HEK cells, R848 agonist 10 uM final, Steady-Glo readout
T2 construct: expressed in transfected cells; host or cells: HEK cells carrying TLR7 and an NFkB luciferase reporter
T2 sequence (Q9NYK1 27-1049): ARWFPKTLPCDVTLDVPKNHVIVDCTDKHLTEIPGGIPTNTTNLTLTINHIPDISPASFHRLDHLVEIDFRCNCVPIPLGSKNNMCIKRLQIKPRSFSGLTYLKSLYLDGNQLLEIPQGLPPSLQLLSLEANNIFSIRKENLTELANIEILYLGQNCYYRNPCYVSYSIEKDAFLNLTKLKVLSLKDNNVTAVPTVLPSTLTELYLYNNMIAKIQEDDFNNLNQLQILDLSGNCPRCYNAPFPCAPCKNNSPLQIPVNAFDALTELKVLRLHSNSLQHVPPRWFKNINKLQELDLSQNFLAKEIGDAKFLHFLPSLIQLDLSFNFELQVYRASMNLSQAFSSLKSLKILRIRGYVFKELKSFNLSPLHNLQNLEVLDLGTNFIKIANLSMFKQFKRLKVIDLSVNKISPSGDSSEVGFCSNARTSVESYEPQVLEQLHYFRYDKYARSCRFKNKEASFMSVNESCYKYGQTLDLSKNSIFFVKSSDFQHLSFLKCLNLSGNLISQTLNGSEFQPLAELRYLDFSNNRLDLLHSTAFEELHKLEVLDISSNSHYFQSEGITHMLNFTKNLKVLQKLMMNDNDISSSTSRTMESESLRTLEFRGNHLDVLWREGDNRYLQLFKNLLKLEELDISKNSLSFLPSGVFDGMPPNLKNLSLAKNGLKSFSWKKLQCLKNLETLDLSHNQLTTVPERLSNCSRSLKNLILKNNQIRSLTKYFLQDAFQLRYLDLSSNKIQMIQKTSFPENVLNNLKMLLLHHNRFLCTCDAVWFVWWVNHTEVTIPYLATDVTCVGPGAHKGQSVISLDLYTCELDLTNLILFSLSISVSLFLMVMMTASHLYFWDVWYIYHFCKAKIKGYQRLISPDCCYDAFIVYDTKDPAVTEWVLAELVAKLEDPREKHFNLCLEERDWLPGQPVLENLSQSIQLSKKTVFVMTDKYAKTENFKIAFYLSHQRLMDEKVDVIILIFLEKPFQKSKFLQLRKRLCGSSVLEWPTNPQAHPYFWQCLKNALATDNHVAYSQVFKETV
Protocol: Example 24: HEK TLR7 Cell Assay
as §1, with “TLR7/NFKb” for “TLR8/NFKb”, “(10” for “(30”

| Compound | pIC50 (TLR8) | pIC50 (TLR7) |
| --- | --- | --- |
| C[C@@H]1CN(c2ccc(C#N)c3nccnc23)C[C@@H]1NC(=O)CC1(F)CCNCC1 [Compound 9, N-[(3R,4R)-1-(8-cyanoquinoxalin-5-yl)-4-methylpyrrolidin-3-yl]-2-(4-fluoropiperidin-4-yl)acetamide] | > 6.00 | > 6.00 |
| Cc1cc2c(N3CCC(CNCCN4CCCCC4)C3)ccnc2n1C (centres unmarked) [Compound 55, [1-(1,2-Dimethyl-1H-pyrrolo[2,3-b]pyridin-4-yl)-pyrrolidin-3-ylmethyl]-(2-piperidin-1-yl-ethyl)-amine] | < 5.00 | 5.00 to 6.00 |
| CCN(CC)CCNC(=O)C1CCN(c2ccnc3nccnc23)C1 (centres unmarked) [Compound 54, 1-pyrido[2,3-b]pyrazin-8-yl-pyrrolidine-3-carboxylic acid (2-diethylamino-ethyl)-amide] | < 5.00 | < 5.00 |
| C[C@@H]1CN(c2ccc(C#N)c3nccnc23)C[C@@H]1N [Compound 1, 8-[(3R,4R)-3-amino-4-methylpyrrolidin-1-yl]quinoxaline-5-carbonitrile] | 5.00 to 6.00 | > 6.00 |
| C[C@@H]1CN(c2ccc(C(F)(F)F)c3ncccc23)C[C@@H]1NC(=O)C(O)C1CC1 (single isomer, unassigned) [Compound 29] | < 5.00 | 5.00 to 6.00 |
| Cc1ccc(N2C[C@@H](C)[C@@H](NC(=O)[C@H](O)C(C)C)C2)c2cccnc12 [Compound 48, (2R)-2-hydroxy-3-methyl-N-[(3R,4R)-4-methyl-1-(8-methylquinolin-5-yl)pyrrolidin-3-yl]butanamide] | < 5.00 | < 5.00 |
| C[C@@H]1CN(c2ccc(C#N)c3nccnc23)C[C@@H]1NC(=O)C(O)C1CC1 (single isomer, unassigned) [Compound 14] | 5.00 to 6.00 | > 6.00 |
| CC(C)[C@@H](O)C(=O)N[C@H]1CN(c2ccc(C(F)(F)F)c3ncccc23)C[C@H]1C [Compound 32, (2R)-2-hydroxy-3-methyl-N-[(3R,4R)-4-methyl-1-[8-(trifluoromethyl)quinolin-5-yl]pyrrolidin-3-yl]butanamide] | < 5.00 | < 5.00 |
| C[C@@H]1CN(c2ccc(C#N)c3nccnc23)C[C@@H]1NC(=O)CC1CCCN(C)C1 (single isomer, unassigned) [Compound 3] | > 6.00 | > 6.00 |
| Cc1ccc(N2C[C@@H](C)[C@@H](NC(=O)[C@@H](O)C(C)C)C2)c2cccnc12 [Compound 47, (2S)-2-hydroxy-3-methyl-N-[(3R,4R)-4-methyl-1-(8-methylquinolin-5-yl)pyrrolidin-3-yl]butanamide] | < 5.00 | 5.00 to 6.00 |
| CC1CN(c2ccc(C#N)c3nccnc23)CC1N (centres unmarked) [Compound 56, 8-(3-Amino-4-methyl-pyrrolidin-1-yl)-quinoxaline-5-carbonitrile hydrochloride] | > 6.00 | > 6.00 |
| NC1CN(c2ccc(C(F)(F)F)c3ncccc23)CC1F (single isomer, unassigned) [Compound 50] | < 5.00 | < 5.00 |
| Cc1ccc(N2C[C@@H](C)[C@@H](NC(=O)CC3CCN(C)CC3(F)F)C2)c2cccnc12 (single isomer, unassigned) [Compound 43] | < 5.00 | 5.00 to 6.00 |
| C[C@@H]1CN(c2ccc(C#N)c3nccnc23)C[C@@H]1NC(=O)C(O)C1CC1 (single isomer, unassigned) [Compound 13] | < 5.00 | 5.00 to 6.00 |

Results, then the compound that gave them:

| pIC50 (TLR8) | pIC50 (TLR7) | Compound |
| --- | --- | --- |
| < 5.00 | 5.00 to 6.00 | C[C@@H]1CN(c2ccc(C(F)(F)F)c3ncccc23)C[C@@H]1N [Compound 17, (3R,4R)-4-methyl-1-[8-(trifluoromethyl)quinolin-5-yl]pyrrolidin-3-amine] |
| 5.00 to 6.00 | 5.00 to 6.00 | C[C@@H]1CN(c2ccc(C(F)(F)F)c3ncccc23)C[C@@H]1NC(=O)CC1CCN(C)CC1(F)F (single isomer, unassigned) [Compound 27] |
| > 6.00 | > 6.00 | C[C@@H]1CN(c2ccc(C(F)(F)F)c3ncccc23)C[C@@H]1NC(=O)CC1(C)CCN(C)CC1 [Compound 24, 2-(1,4-dimethylpiperidin-4-yl)-N-[(3R,4R)-4-methyl-1-[8-(trifluoromethyl)quinolin-5-yl]pyrrolidin-3-yl]acetamide] |
| < 5.00 | 5.00 to 6.00 | C[C@@H]1CN(c2ccc(C(F)(F)F)c3ncccc23)C[C@@H]1NC(=O)CN1CCOCC1 [Compound 23, N-[(3R,4R)-4-methyl-1-[8-(trifluoromethyl)quinolin-5-yl]pyrrolidin-3-yl]-2-(morpholin-4-yl)acetamide] |
| < 5.00 | 5.00 to 6.00 | Cc1ncc(N2C[C@@H](C)[C@@H](N)C2)c2cccnc12 [Compound 51, (3R,4R)-4-methyl-1-(8-methyl-[1,7]naphthyridin-5-yl)-pyrrolidin-3-ylamine hydrochloride] |
| 5.00 to 6.00 | 5.00 to 6.00 | C[C@@H]1CN(c2ccc(C(F)(F)F)c3ncccc23)C[C@@H]1NC(=O)CC1CCN(C)CC1(F)F (single isomer, unassigned) [Compound 28] |
| 5.00 to 6.00 | > 6.00 | Cc1ccc(N2C[C@@H](C)[C@@H](NC(=O)CC3(C)CCN(C)CC3)C2)c2cccnc12 [Compound 40, 2-(1,4-dimethylpiperidin-4-yl)-N-[(3R,4R)-4-methyl-1-(8-methylquinolin-5-yl)pyrrolidin-3-yl]acetamide] |
| > 6.00 | > 6.00 | C[C@@H]1CN(c2ccc(C(F)(F)F)c3ncccc23)C[C@@H]1NC(=O)CC1(F)CCN(C)CC1 [Compound 26, 2-(4-fluoro-1-methylpiperidin-4-yl)-N-[(3R,4R)-4-methyl-1-[8-(trifluoromethyl)quinolin-5-yl]pyrrolidin-3-yl]acetamide] |

Source: US10793553B2, “TLR7/8 antagonists and uses thereof” (Merck Patent GmbH, priority 2017, dated 2020)
